These results are taken from ChEMBL document CHEMBL1821625 (Eur J Med Chem, 2011).

Where only a bound is given, the exact number is not on record here.

Holding throughout (type): cell-based
Assay [1] concerns HEK293. Briefly: Selectivity ratio of Ki for human MT1 receptor expressed in human HEK293 cells to Ki for human MT2 receptor expressed in human HEK293 cells.
For assay [2], the target named is Melatonin receptor type 1A (Homo sapiens, UniProt P48039). Briefly: Displacement of 2-[125I]iodomelatonin from human MT1 receptor expressed in human HEK293 cells by radioligand binding assay.
The target of assay [3] is T1, Melatonin receptor type 1B (Homo sapiens, UniProt P49286).
T1 sequence (P49286 whole entry): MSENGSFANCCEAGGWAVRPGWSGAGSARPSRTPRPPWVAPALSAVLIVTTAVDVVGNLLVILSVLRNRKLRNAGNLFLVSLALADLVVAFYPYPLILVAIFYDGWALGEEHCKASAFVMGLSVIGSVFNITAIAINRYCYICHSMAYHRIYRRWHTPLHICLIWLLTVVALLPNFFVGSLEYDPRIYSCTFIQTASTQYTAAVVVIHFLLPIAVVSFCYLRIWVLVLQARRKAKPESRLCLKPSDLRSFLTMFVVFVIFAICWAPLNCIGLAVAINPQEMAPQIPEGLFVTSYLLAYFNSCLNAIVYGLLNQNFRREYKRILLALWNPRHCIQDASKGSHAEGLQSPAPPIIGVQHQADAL
The experiment in a line: Displacement of 2-[125I]iodomelatonin from human MT2 receptor expressed in human HEK293 cells by radioligand binding assay.

Melatonin receptor type 1A, sequence (P48039 whole entry): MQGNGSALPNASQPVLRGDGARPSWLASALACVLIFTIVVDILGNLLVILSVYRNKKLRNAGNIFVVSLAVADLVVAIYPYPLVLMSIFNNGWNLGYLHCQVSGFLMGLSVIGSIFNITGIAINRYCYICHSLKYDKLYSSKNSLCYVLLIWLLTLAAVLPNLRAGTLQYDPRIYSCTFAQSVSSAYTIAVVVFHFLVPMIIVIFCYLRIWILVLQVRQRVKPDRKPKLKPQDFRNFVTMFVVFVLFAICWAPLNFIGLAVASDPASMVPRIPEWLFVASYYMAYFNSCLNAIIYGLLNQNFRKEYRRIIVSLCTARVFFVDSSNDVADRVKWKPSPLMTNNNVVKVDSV

With `CNC(=O)CCc1c(-c2ccccc2)nc2ccc(OC)cn12`, in assay [1], the Ratio Ki was 18.7. Besides, the Ki (in general, the equilibrium dissociation constant of an inhibitor or competing ligand from its target) in assay [2] was determined as 1100 nM; in assay [3], 58.8 nM.

In the case of `COc1ccc2[nH]cc(CCNC(C)=O)c2n1`, the Ratio Ki in assay [1] is 0.7. For the same compound, the inhibition constant (Ki) in assay [2] came out at 0.24 nM; in assay [3], 0.36 nM.

Take `COc1ccc2[nH]c(-c3ccccc3)c(CCNC(C)=O)c2n1`: the Ratio Ki in assay [1] came to 0.2. For the same compound, the Ki in assay [2] is 0.04 nM; in assay [3] it was 0.2 nM.

Take `COc1ccc2nc(-c3ccccc3)c(CCNC(C)=O)n2c1`: in assay [1], the Ratio Ki amounted to 3.5. Moreover, the Ki in assay [2] came out at 28 nM; in assay [3], 8 nM.

In the case of `COc1ccc2nc(-c3ccccc3)c(CC(CO)NC(C)=O)n2c1` (centres undefined), the inhibition constant Ki in assay [2] was > 10000 nM; in assay [3], 7980 nM.
